In US11826324B2, “Pharmaceutical compositions for preventing or treating inflammatory disease, autoimmune disease, or combination thereof, and method for using same” (INDUSTRY-ACADEMIC COOPERATION FOUNDATION, YONSEI UNIVERSITY, priority 2017, dated 2023):

Columns and labels:
[1] = system: virus-specific CD8+ T cell (GP33+CD8 T cell); design: species or system C57BL/6 mouse; settings: mouse, in vivo
[2] = system: TNF-α production in THP-1 cells; assay: Inhibition of tumor necrosis factor-alpha production in THP-1 cell line (ELISA); type: cell-based, human; settings: for amount of TNF-α produced in THP-1 cells, Average: PMA 25 ng/ml 24 h, then LPS, 24 h, No Drug control 5250; for production of TNF-α in cells (THP-1), result in words: FIG. 2A and Table 1
Experimental: The human THP-1 cell line (ATCC) was prepared and cultured at a temperature of 37° C. and under 5% CO2.
Prepared THP-1 cells were inoculated onto a 96-well plate at the density of 1×10^5, and HL-156A, HL-156B, HL-156C, HL-156D, HL-156E, and HL-156F (all produced by Hanoi BioPharma Inc.) were added at the concentration of 1 μM or 10 μM to the cell culture solution. Thereafter, 25 ng/ml of phorbol 12-myristate 13-acetate (PMA, Sigma-Aldrich) was added to the cell culture solution, and cells were cultured for 24 hours, and then, lipopolysaccharide (LPS) was added thereto to induce an immune response of THP-1 cell. As a negative control, a group in which LPS was not added or a group in which
LPS was added but no drug was added, were used.
THP-1 cells were cultured for 24 hours, and then, the amount of tumor necrosis factor-alpha (TNF-α) in the culture solution by using TNF ELISA kit (Invitrogen) was measured.

[3] = system: collagen-induced arthritis mouse model; assay: Collagen-induced arthritis mouse model, arthritis score; type: in vivo, DBA/1 mouse; settings: 60 mg/kg intraperitoneally once every two days; mice with average arthritis score of 8; FIG. 5
Experimental: Bovine Type II collagen was dissolved in complete freund's adjuvant (CFA) containing 250 μg per mouse of heat-sterilized Mycobacterium tuberculosis H37Ra (BD Sciences) to prepare a collagen solution.
DBA/1 mouse was immunized by intradermally injecting […] per mouse of the prepared collagen thereinto. On day 21 after the immunization, bovine Type II collagen dissolved in incomplete freund's adjuvant (IFA) was injected subcutaneously into the tail of a mouse in an amount of 100 μg to boost the immune system.
The arthritis score of mice was measured using the following criteria:
Grade 0: swelling or erythema;
Grade 1: mild swelling and erythema, inflammation of the toes;
Grade 2: moderate swelling and erythema confined to the distal to mid-limbs;
Grade 3: extended to the ankle, clear swelling and erythema; and
Grade 4: Severe swelling, erythema, and joint stiffness of ankle, foot, and toes.
A score of 0 to 4 was assigned to each leg, and a maximum of 16 points of arthritis scores were assigned to each mouse.
Mice with an average arthritis score of 8 were randomly selected. The HL-156A compound was diluted in PBS and administered to the selected mice intraperitoneally once every two days with 60 mg/kg body weight of HL-156A compound.

[4] = system: TNF-α production in MH7A cells; assay: Inhibition of tumor necrosis factor-alpha production in synoviocyte MH7A (ELISA); type: cell-based, human; settings: for amount of TNF-α in MH7A culture solution, Average: LPS, 24 h, control 1 (HL156A series), 3.53 (HL156B series); for production of TNF-α in the cells (MH7A), result in words: 0.1, 1, 10 μM, Table 2 and FIG. 2B
Experimental: Human synoviocyte cell line MH7A (provided by Prof. Kim Wan-wook of Catholic University) was prepared and cultured at a temperature of 37° C. and under 5% CO2.
The prepared MH7A cells were inoculated onto a 96-well plate at the density of 3×10^4 cells, and lipopolysaccharide (LPS) was added thereto to induce the immune response of MH7A cells. Then, HL-156A or HL-156B was added at a concentration of 0.1 μM, 1 μM, or 10 μM to the cell culture solution. As a negative control, a group in which LPS was used but no drug was used, was used.
After MH7A cells were cultured for 24 hours, the amount of TNF-α in the culture solution was measured by using a TNF-α ELISA kit (Peprotach).

CD4 T cell = assay: Effect on T cell activation in vitro: proliferation of CD4 T cell (CTV, flow cytometry); type: cell-based, C57BL/6 mice; settings: T cells activated 3 days with anti-CD3/28 Dynabeads; HL-156A 5, 15, 45 or 135 μM and/or 20 nM rapamycin; FIG. 1A
Excerpt: (§1) The spleen was harvested from normal C57BL/6 mice (Orient Bio) and the mixture obtained by adding a RPMI solution containing 2% (v/v) fetal bovine serum (FBS) to the spleen tissues was homogenized by using a 40 μm strainer.
(§2) T cells were isolated from the homogenized spleen tissue by using CD90.2 magnetic beads (Miltenyi Biotec). Isolated T cells were labeled using CellTrace™ Violet (CTV). Subsequently, labeled T cells were activated for 3 days by using anti-CD3/28 Dynabeads®.
(§3) During T cells were activated, 5 μM, 15 μM, 45 μM, or 135 μM HL-156A (Hanoi BioPharma Inc.), and/or 20 nM rapamycin (LC Laboratories) were added to identify the effect of HL-156A, or the combination of HL-156A and rapamycin on the proliferation of T cells. […]
(§4) Activated T cells were immunostained by using allophycocyanin (APC)-labeled anti-CD4 antibody (BD Biosciences) and peridinin chlorophyll protein complex (PerCP)-labeled anti-CD8 antibody (eBioscience). Immunostained T cells were analyzed by flow cytometric analysis to identify the surface molecular phenotype thereof. From the results obtained by flow cytometric analysis, the proliferation ratio (%) of the T cell with respect to a material treated on the T cell was calculated, and the proliferation ratio (%) of CD4 T cell and the proliferation ratio (%) of CD8 T cell with respect to a compound are shown in FIGS. 1A and 1B, respectively.

CD8 T cell = assay: Effect on T cell activation in vitro: proliferation of CD8 T cell (CTV, flow cytometry); type: cell-based, C57BL/6 mice; settings: T cells activated 3 days with anti-CD3/28 Dynabeads; HL-156A 5, 15, 45 or 135 μM and/or 20 nM rapamycin; FIG. 1B
Excerpt: as §1, §2, §3, §4

| SMILES | differentiation of TCM cells and TEM cells in PBMCs [1] | proliferation of TEFF cells in PBMCs [1] | amount of TNF-α produced in THP-1 cells, Average ([2]; 1 μM compound) | amount of TNF-α produced in THP-1 cells, Average ([2]; 10 μM compound) | production of TNF-α in cells (THP-1), result in words [2] | arthritis score over time [3] | amount of TNF-α in MH7A culture solution, Average ([4]; 0.1 μM compound) | amount of TNF-α in MH7A culture solution, Average ([4]; 1 μM compound) | amount of TNF-α in MH7A culture solution, Average ([4]; 10 μM compound) | production of TNF-α in the cells (MH7A), result in words [4] | proliferation of CD4 T cell (CD4 T cell) | proliferation of CD8 T cell (CD8 T cell) |
| --- | --- | --- | --- | --- | --- | --- | --- | --- | --- | --- | --- | --- |
| N=C(NC(=N)N1CCCC1)Nc1ccc(OC(F)(F)F)cc1 [HL-156A, N1-pyrrolidine-N5-(4-trifluoromethoxy)phenyl biguanide] | inhibited | promoted | 6750 pg/mL | 3025 pg/mL | inhibited the production of TNF-α | decreased the arthritis score over time | 0.82 | 0.75 | 0.72 | inhibited the production of TNF-α in a concentration-dependent manner | significantly inhibited | significantly inhibited |
| N=C(NC(=N)N1CCCC1)Nc1ccc(C(F)(F)F)cc1 [HL-156B, N1-pyrrolidine-N5-(4-trifluoromethyl)phenyl biguanide] |  |  | 6125 pg/mL | 2875 pg/mL | inhibited the production of TNF-α |  | 3.11 | 2.56 | 2.17 | inhibited the production of TNF-α in a concentration-dependent manner |  |  |
| N=C(NC(=N)N1CCCCC1)Nc1ccc(F)cc1 [HL-156C, N1-piperidine-N5-(4-fluoro)phenyl biguanide] |  |  | 4825 pg/mL | 6375 pg/mL |  |  |  |  |  |  |  |  |
| N=C(NC(=N)N1CCCCC1)Nc1ccc(-c2nnn[nH]2)cc1 [HL-156D, N1-piperidine-N5-(4-(1H-tetrazole-5-yl))phenyl biguanide] |  |  | 6125 pg/mL | 5150 pg/mL |  |  |  |  |  |  |  |  |
| N=C(NC(=N)N1CCCC1)Nc1ccc(Cl)c(Cl)c1 [HL-156E, N1-pyrrolidine-N5-(3,4-dichloro)phenyl biguanide] |  |  | 4725 pg/mL | 1925 pg/mL | inhibited the production of TNF-α |  |  |  |  |  |  |  |
| COc1cc(NC(=N)NC(=N)N2CCCCC2)cc(OC)c1 [HL-156F, N1-piperidine-N5-(3,5-dimethoxy)phenyl biguanide] |  |  | 6425 pg/mL | 4650 pg/mL | inhibited the production of TNF-α |  |  |  |  |  |  |  |
